The text below walks through data of ChEMBL document CHEMBL6109175, “Ubiquitin-Specific Protease 7 (USP7) as a Promising Therapeutic Target for Drug Discovery: From Mechanisms to Therapies” (J Med Chem, 2025).

Test [1] addresses T1, Ubiquitin carboxyl-terminal hydrolase 7 (Homo sapiens, UniProt Q93009). Kind of test: Inhibition of N-terminal His-tagged USP7 catalytic domain (208 to 554 residues) (unknown origin) by TR-FRET assay. (In general: Time-resolved FRET reads energy transfer from a long-lived donor to a nearby acceptor.)
Test [2] deals with T1, Ubiquitin carboxyl-terminal hydrolase 7. As to the kind of experiment: Binding affinity to USP7 catalytic domain human USP7 (208 to 560 residues) (unknown origin) extracted from Escherichia coli assessed as dissociation constant.
The target is the same in test [3]. As to the kind of experiment: Inhibition of USP7 catalytic domain human USP7 (208 to 560 residues) (unknown origin) extracted from Escherichia coli.
The target is the same in test [4]. As to the kind of experiment: Inhibition of full length USP7 (unknown origin).

T1 sequence (Q93009 whole entry, the tested form may be a part): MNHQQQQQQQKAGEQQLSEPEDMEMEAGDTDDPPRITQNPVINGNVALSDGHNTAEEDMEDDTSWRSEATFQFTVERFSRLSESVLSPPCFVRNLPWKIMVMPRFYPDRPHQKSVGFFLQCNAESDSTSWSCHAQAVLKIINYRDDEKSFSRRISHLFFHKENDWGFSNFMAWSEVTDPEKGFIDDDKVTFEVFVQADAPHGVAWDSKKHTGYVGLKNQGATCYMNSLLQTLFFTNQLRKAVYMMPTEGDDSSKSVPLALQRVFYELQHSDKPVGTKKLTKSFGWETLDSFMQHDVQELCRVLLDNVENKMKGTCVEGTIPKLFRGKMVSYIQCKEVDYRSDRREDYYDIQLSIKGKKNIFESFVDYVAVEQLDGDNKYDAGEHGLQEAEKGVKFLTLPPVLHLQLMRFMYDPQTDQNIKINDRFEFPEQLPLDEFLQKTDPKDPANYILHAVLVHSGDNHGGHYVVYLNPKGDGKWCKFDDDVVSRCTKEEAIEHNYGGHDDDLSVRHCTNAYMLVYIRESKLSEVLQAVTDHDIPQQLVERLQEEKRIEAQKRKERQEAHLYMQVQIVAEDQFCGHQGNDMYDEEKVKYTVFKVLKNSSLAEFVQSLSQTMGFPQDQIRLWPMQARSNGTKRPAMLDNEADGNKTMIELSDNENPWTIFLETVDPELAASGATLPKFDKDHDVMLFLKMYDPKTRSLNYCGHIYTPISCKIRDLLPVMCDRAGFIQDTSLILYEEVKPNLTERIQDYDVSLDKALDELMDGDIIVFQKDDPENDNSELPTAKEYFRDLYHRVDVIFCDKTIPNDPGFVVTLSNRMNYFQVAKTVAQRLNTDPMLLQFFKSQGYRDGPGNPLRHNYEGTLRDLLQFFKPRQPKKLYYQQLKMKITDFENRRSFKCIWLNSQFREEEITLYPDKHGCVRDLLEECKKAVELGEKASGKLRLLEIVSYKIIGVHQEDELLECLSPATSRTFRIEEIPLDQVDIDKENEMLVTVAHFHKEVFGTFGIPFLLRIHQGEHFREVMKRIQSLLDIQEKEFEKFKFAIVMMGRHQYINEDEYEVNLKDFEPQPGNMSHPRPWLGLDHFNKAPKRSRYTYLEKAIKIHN

The compound `CCc1c(-c2ccc(C(=O)NC)nc2)cnc(N)c1-c1ccc(O)cc1` registered an IC50 in test [1] of 0.61 µM.
Consider `O=C(C[C@@H](C(F)F)n1ccc(F)n1)N1CCC(O)(Cn2cnc3c(cnn3-c3ccc(F)cc3)c2=O)CC1`, for which, in test [2], the Kd stood at 0.065 µM. The compound further came in with an IC50 in test [3] of 52 µM.
For the compound `O=C(CCc1ccccc1)N1CCC(O)(Cn2cnc3cc(Cl)ccc3c2=O)CC1`, the IC50 in test [4] was determined as 10.2 µM.

By IC50 is commonly meant the midpoint of a concentration-inhibition curve. In general, Kd refers to the constant that tells how readily two partners part at equilibrium.
